Source: US8343961B2, “Substituted heterocyclic compounds” (ArQule, Inc., priority 2009, dated 2013)

Legend:
Tec kinase = target: T1, Tec kinase (Homo sapiens, UniProt P42680); assay: Tec Kinase Activity Assay; assay type: biochemical; details: read-out: Tec % INH, at 30 uM
T1 sequence (P42680 1-631): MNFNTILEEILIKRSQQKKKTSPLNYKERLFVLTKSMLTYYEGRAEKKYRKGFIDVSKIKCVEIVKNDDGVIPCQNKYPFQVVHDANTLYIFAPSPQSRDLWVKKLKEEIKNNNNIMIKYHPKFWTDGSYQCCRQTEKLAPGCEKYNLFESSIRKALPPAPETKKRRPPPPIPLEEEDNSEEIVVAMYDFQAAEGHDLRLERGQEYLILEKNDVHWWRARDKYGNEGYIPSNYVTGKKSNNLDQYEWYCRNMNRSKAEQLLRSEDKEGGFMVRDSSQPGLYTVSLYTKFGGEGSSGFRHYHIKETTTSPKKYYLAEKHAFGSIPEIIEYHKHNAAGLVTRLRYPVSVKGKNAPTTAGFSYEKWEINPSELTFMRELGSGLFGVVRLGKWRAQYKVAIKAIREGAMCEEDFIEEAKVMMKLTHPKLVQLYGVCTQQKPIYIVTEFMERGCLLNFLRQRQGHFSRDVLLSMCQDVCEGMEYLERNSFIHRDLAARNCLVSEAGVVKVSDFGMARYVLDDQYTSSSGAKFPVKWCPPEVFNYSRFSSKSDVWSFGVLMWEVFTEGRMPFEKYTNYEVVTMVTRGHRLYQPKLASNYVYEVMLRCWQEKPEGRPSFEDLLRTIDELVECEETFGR
Procedure: (§1) The disclosed compounds were assayed for their ability to inhibit the activity of Tec kinase. Nunc Maxisorb plates were coated with streptavidin by overnight incubation with 100 μL per well of 1 μg/mL Streptavidin in DPBS. Prior to the start of the experiment, the plates were washed with TBST (3×200 μL) and blocked for at least 1 hour by adding 150 μL of 5% BSA/TBST. The plates were washed with TBST (3×200 μL/well) and left dry immediately before the capture step.
The test articles and controls (Staurosporine and Sutent) were prepared using the following assay buffer @ 3× desired final concentration (50 mM Tris-HCl, 0.02 mg/mL BSA, 10 mM MgCl2, 0.1 mM Na3VO4, 1 mM EGTA, 75 μM ATP0.01% NP-40, 2 mM DTT in 10% glycerol/water). In a reaction plate were added rapidly 20 μL test article (or control) and 20 μL TEC 0.25 ng/4. The plate was incubated for 30 minutes. To the reaction plate was added 20 μL of Pyk-2.5 ng/μL. The plate was incubated at room temperature for two hours. From the reaction plate, 50 μL was transferred to the streptavidin coated plate. The capture plate was incubated at room temperature for 30 minutes then washed 6× with TBST. To the capture plate was added 100 μL/well of Cell Signaling anti-phospho tyrosine at a dilution of 1:3000 in 2% BSA/TBST. The plate was incubated for one hour at room temperature then washed 6× with TBST. To the capture plate was added 100 μL/well of Alkaline Phosphatase Tagged Goat anti Mouse Antibody at a dilution of 1:4000 in 2% BSA/TBST. The plate was incubated for one hour at room temperature then washed 6× with TBST. The fluorescent readout was initiated by the addition of 100 μL/well of Attophos reagent (6 mg/10 mL). The reading was done on the Perkin Elmer Envision system.

RET kinase = RET kinase (Homo sapiens, UniProt P07949); assay: RET Kinase Activity Assay; assay type: biochemical; details: read-out: Ret, % INH, at 30 uM
Procedure: as §1, with “RET” for “Tec”, “Maxwasorb” for “Maxisorb”, “[…])” for “μL/well)”
The test articles and controls (Staurosporine and Sutent) were prepared using the following assay buffer @ 3× desired final concentration (50 mM […], 0.02 mg/mL BSA, 10 mM MgCl2, 0.1 mM Na3VO4, 1 mM EGTA, 75 μM ATP0.01% NP-40, 2 mM DTT in 10% glycerol/water). In a reaction plate, were added rapidly 20 μL test article (or control) and 20 μL RET (0.25 ng/4 final concentration). The plate was incubated for 15 minutes. To the reaction plate was added 20 μL of Pyk-2 (0.25 ng/4 final concentration). The plate was incubated at room temperature for one hour.
From the reaction plate, 50 μL was transferred to the streptavidin coated plate. The capture plate was incubated at room temperature for 30 minutes then washed 6× with TBST. To the capture plate was added 100 μL/well of Cell Signaling anti-phospho tyrosine at a dilution of 1:3000 in 2% BSA/TBST. The plate was incubated for one hour at room temperature then washed 6× with TBST. To the capture plate was added 100 μL/well of Alkaline Phosphatase Tagged Goat anti Mouse Antibody at a dilution of 1:4000 in 2% BSA/TBST. The plate was incubated for one hour at room temperature then washed 6× with TBST. The fluorescent readout was initiated by the addition of 100 μL/well of Attophos reagent (6 mg/10 mL). The reading was done on the Perkin Elmer Envision system.

Chain of RET kinase (P07949 29-1114): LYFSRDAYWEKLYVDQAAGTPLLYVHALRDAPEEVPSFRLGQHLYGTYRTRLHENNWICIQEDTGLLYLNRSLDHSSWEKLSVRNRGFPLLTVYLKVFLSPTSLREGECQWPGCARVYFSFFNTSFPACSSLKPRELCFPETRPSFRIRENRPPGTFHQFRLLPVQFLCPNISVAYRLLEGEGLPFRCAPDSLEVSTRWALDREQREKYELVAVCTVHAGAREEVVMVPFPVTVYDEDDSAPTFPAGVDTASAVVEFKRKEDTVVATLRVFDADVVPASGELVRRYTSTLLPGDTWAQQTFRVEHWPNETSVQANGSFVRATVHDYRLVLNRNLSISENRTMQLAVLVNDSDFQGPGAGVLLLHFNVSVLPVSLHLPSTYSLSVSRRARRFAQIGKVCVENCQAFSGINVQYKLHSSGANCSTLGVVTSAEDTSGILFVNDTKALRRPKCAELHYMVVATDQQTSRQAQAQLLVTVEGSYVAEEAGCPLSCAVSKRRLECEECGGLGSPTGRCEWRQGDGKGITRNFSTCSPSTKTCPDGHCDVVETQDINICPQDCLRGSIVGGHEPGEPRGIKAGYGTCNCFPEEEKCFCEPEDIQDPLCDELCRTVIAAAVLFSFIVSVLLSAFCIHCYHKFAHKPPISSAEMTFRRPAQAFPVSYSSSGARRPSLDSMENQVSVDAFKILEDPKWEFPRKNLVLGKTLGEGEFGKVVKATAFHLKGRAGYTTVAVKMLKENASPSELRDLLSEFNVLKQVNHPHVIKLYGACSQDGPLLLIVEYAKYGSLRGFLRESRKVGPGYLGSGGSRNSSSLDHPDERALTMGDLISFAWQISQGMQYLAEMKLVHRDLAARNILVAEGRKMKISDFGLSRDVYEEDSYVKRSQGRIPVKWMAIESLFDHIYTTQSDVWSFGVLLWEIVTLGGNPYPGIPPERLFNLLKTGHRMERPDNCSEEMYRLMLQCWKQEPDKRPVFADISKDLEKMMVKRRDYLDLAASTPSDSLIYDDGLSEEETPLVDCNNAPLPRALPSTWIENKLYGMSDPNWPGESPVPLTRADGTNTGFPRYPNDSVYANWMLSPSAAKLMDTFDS

Row | Compound | inhibition at 30 µM (Tec kinase) | inhibition at 30 µM (RET kinase)
1 | COc1cc2c(cc1OC)C(c1ccccc1Cl)N(c1nc(N)nc3[nH]cnc13)CC2 (stereo not shown) [Compound 48, 6-[1-(2-chlorophenyl)-6,7-dimethoxy-3,4-dihydroisoquinolin-2(1H)-yl]-9H-purin-2-amine] | < 50% | < 50%
2 | COc1cc2c(cc1OC)C(c1cccc(C(F)(F)F)c1)N(c1nc(N)nc3[nH]cnc13)CC2 (stereo not shown) [Compound 50, 6-{6,7-dimethoxy-1-[3-(trifluoromethyl)phenyl]-3,4-dihydroisoquinolin-2(1H)-yl}-9H-purin-2-amine] | < 50% | < 50%
